# Source: patent US8039009B2, “Modified release formulations of memantine oral dosage forms” (priority 2004, dated 2011)
# Assay: Powder testing of final blends for compression (flow and compression properties)
# Format: physicochemical
# Protocol: The powder properties of the final blends for compression were evaluated. During compression, excellent powder flow through the hopper was visually observed. The following Table presents the results of powder testing.
compound,measurement,setting,value
"CC12CC3CC(C)(C1)CC(N)(C3)C2 [memantine, 1-amino-3,5-dimethyladamantane]",flow and compression properties (in words),,poor flow properties
same,Flowability Index,powder,23.5
